We go through two molecules from paper PMC10873978, “Novel tetrahydroisoquinolines as DHFR and CDK2 inhibitors: synthesis, characterization, anticancer activity and antioxidant properties” (BMC Chemistry, 2024).

The term IC50 denotes the concentration that inhibits the measured activity by half.

For one series, the system named is A549 cell line. The series is described as follows: In vitro cytotoxic activity, MTT method, A549. How it is done:
(§1) Cell lines: The in vitro human breast cancerous cell line (MCF7), lung cancerous cell lines (A549) and normal cell lines were purchased from Serum and Vaccine formulation in Cairo-Egypt.
(§2) In vitro cytotoxic activity of all synthesized compounds against two human breast cell line (MCF7) and lung cell lines (A549) was evaluated according to the MTT method. Firstly, Growth the cell line medium in 96 well tissue culture plate was injected with 10^5 cells/mL (100 uL/plate well) of the cell line and incubated at 37 °C for 24 h to develop a monolayer sheet then the formed growth medium was poured from 96 well microtiter plates after the confluent sheet of cells. […] Secondly, add 0.1 mL of each concentration tetrahydroisoquinoline sample to each plate. The plates were incubated at 37 °C. Thirdly MTT solution (5 mg/mL in PBS) is prepared. Add 20 µL of MTT solution to each well plates. And shaking in 150 rpm for 5 min, to mix the MTT into the media. Then incubate at (37 °C, 5% CO2) for 1–5 h. Finally read the optical density at 560 nm and subtract background at 620 nm.
(§3) In this work, doxorubicin was used as a positive control drug for comparison with the synthesized compounds under the same experimental conditions.
(Formazan colour is commonly taken as a measure of viable cells.)

The subject of the next series is MCF7 cell line. The series is described as follows: In vitro cytotoxic activity, MTT method, MCF7. The format is cell-based, human. How it is done:
as §1, §2, §3

Series [1] is described as follows: DPPH scavenging antioxidant activity. The method, then: The antioxidant activity of ten compounds was determined using DPPH [32–34]. A solution 1: prepared by dissolving DPPH (0.002 g) in ethanol (50 mL etnanol). Solution 2: prepared by dissolving different weights 0.05, 0.01 g of each sample in 1 mL of DMSO then take 10 µL of each sample solution with 1 mL ethanol. Then mix 1 mL of solution 1 with 1 mL of solution 2 then vortex the resulting mixture in the dark for about 30 min. The absorbance of the mixture was measured by spectrophotometer at λmax = 517 nm against blank 1 mL absolute ethanol and compared to the ascorbic acid (Vitamin C).
Ten newly synthesized compounds were studied as in vitro antioxidants by measuring of their DPPH scavenging activity which is represented as a percentage % [32]^. Results are represented by mean ± SD of three replicates. […] The higher dose concentration of 0.05 μg/mL represents higher antioxidant activity. […] The high antioxidant activity is referred to the presence of C=O, NH2, and OH groups like ascorbic acid which can be easily oxidized and reduced and can be used as antioxidant drugs. (Fig. 8 and Table 9).

For the molecule `CC(=O)C1C(c2ccc(N(C)C)cc2)c2c(C)nc3sc(C(=O)Nc4ccc(Cl)cc4)c(N)c3c2CC1(C)O` (stereo not drawn) [Compound 8c, 7-Acetyl-1-amino-N-(4-chlorophenyl)-5,8-dimethyl-8-hydroxy-6-(4-N,N-dimethyl-aminophenyl)-6,7,8,9-tetrahydrothieno[2,3-c]isoquinoline-2-carboxamide], the Toxicity % is 10.24% in the series on A549 cell line (A549, Conc. 0.04875 µMol); 14.26% in the series with A549 cell line (A549, Conc. 0.0975 µMol); 18.74% in the series with A549 cell line (A549, Conc. 0.195 µMol); 47.14% in the series on A549 cell line (A549, Conc. 0.391 µMol); 65.05% in the series with A549 cell line (A549, Conc. 0.781 µMol); 75.74% in the series with A549 cell line (A549, Conc. 1.562 µMol). Further, the Toxicity % with A549 cell line (A549, Conc. 3.125 µMol) is 84.18%; with A549 cell line (A549, Conc. 6.25 µMol) it was 89.35%; in the series on A549 cell line (A549, Conc. 12.5 µMol) it was 96.69%; in the series on A549 cell line (A549, Conc. 25 µMol), 97%; with MCF7 cell line (MCF7, Conc. 0.0487 µMol), 26.68%; with MCF7 cell line (MCF7, Conc. 0.0975 µMol) it was 30.4566%. Also, the Toxicity % with MCF7 cell line (MCF7, Conc. 0.195 µMol) stood at 40.36%; with MCF7 cell line (MCF7, Conc. 0.391 µMol), 60.25%; with MCF7 cell line (MCF7, Conc. 0.781 µMol) it was 70.02%; in the series with MCF7 cell line (MCF7, Conc. 1.562 µMol), 85.7%; in the series on MCF7 cell line (MCF7, Conc. 3.125 µMol), 96.45%; in the series with MCF7 cell line (MCF7, Conc. 6.25 µMol) it was 96.57%. For the same molecule, the Toxicity % turned out to be 97.1% in the series on MCF7 cell line (MCF7, Conc. 12.5 µMol) and 96.94% with MCF7 cell line (MCF7, Conc. 25 µMol). The Viability % in the series with A549 cell line (A549, Conc. 0.195 µMol) is 81.26%; in the series with A549 cell line (A549, Conc. 0.391 µMol), 52.86%; in the series with A549 cell line (A549, Conc. 0.781 µMol), 34.95%; with A549 cell line (A549, Conc. 1.562 µMol), 24.26%; in the series with A549 cell line (A549, Conc. 3.125 µMol), 15.82%; in the series with A549 cell line (A549, Conc. 6.25 µMol), 10.65%. Besides, the Viability % is 3.314% in the series on A549 cell line (A549, Conc. 12.5 µMol); 2.998% in the series with A549 cell line (A549, Conc. 25 µMol); 73.3223% in the series on MCF7 cell line (MCF7, Conc. 0.0487 µMol); 69.5434% in the series on MCF7 cell line (MCF7, Conc. 0.0975 µMol); 59.64% in the series with MCF7 cell line (MCF7, Conc. 0.195 µMol); 39.75% in the series on MCF7 cell line (MCF7, Conc. 0.391 µMol). The Viability % in the series with MCF7 cell line (MCF7, Conc. 0.781 µMol) was 29.98%; in the series on MCF7 cell line (MCF7, Conc. 1.562 µMol), 14.3%; with MCF7 cell line (MCF7, Conc. 3.125 µMol), 3.554%; in the series on MCF7 cell line (MCF7, Conc. 6.25 µMol), 3.431%; in the series with MCF7 cell line (MCF7, Conc. 12.5 µMol), 2.9%; in the series on MCF7 cell line (MCF7, Conc. 25 µMol) it was 3.064%. Further, the 50% inhibitory concentration (IC50) came to 332 ± 2 nM in the series with A549 cell line (Homo sapiens, read-out: IC50 ± SD) and 215 ± 5 nM in the series on MCF7 cell line (Homo sapiens, MCF7, MCF7 cell line, MTT).
As to `O=C1O[C@H]([C@@H](O)CO)C(O)=C1O` [Vitamin C, ascorbic acid, reference compound], the “DPPH scavenging, inhibition (%)” value came to 50.54 ± 2.76% in series [1] (0.01 µg/mL) and 69.90 ± 3.98% in series [1] (0.05 µg/mL).
